Test results taken from the NIST ThermoML archive (doi:10.1016/j.jct.2016.08.001).
Numbers after ± are expanded uncertainties.

What was measured:
[1] = xn = mol fraction of the nth substance listed; settings: 100 kPa, Liquid; for mass density: Vibrating tube method; for speed of sound: Frequency=3 MHz, Sing-around technique in a fixed-path interferometer
[2] = refractive index (Na D-line) (dimensionless); xn = mol fraction of the nth substance listed; settings: 100 kPa, Liquid, Standard Abbe refractometry

Nc1ccccc1 [aniline] + CCOC(=O)OCC
Settings | mass density, 318.15 K [kg/m3] | mass density, 323.15 K [kg/m3] | refractive index, 298.15 K | refractive index, 303.15 K | refractive index, 308.15 K | refractive index, 313.15 K | refractive index, 318.15 K | refractive index, 323.15 K | speed of sound, 323.15 K [m/s]
[1], x2 = 0 | 999.7 ± 1 | 995.4 ± 1 | – | – | – | – | – | – | 1540.9 ± 1.5
[1], x2 = 0.073 | 996.5 ± 1 | 992.1 ± 1 | – | – | – | – | – | – | 1498.2 ± 1.5
[1], x2 = 0.1652 | 992.1 ± 1 | 987.6 ± 1 | – | – | – | – | – | – | 1446.8 ± 1.5
[1], x2 = 0.2537 | 987.9 ± 1 | 983.2 ± 1 | – | – | – | – | – | – | 1400.5 ± 1.5
[1], x2 = 0.3387 | 983.7 ± 1 | 979 ± 1 | – | – | – | – | – | – | 1358.7 ± 1.5
[1], x2 = 0.4432 | 978.6 ± 1 | 973.7 ± 1 | – | – | – | – | – | – | 1310.1 ± 1.5
[1], x2 = 0.5468 | 973.1 ± 1 | 968.1 ± 1 | – | – | – | – | – | – | 1263 ± 1.5
[1], x2 = 0.6546 | 967.2 ± 1 | 962 ± 1 | – | – | – | – | – | – | 1217.1 ± 1.5
[1], x2 = 0.7559 | 961.4 ± 1 | 956.1 ± 1 | – | – | – | – | – | – | 1174.9 ± 1.5
[1], x2 = 0.884 | 954.3 ± 1 | 948.8 ± 1 | – | – | – | – | – | – | 1122.5 ± 1.5
[2], x2 = 0 | – | – | 1.5826 ± 0.0016 | 1.5793 ± 0.0016 | 1.576 ± 0.0016 | 1.5727 ± 0.0016 | 1.5694 ± 0.0016 | 1.5661 ± 0.0016 | –
[2], x2 = 0.073 | – | – | 1.5649 ± 0.0016 | 1.562 ± 0.0016 | 1.559 ± 0.0016 | 1.556 ± 0.0016 | 1.5531 ± 0.0016 | 1.5501 ± 0.0016 | –
[2], x2 = 0.1652 | – | – | 1.5435 ± 0.0016 | 1.5408 ± 0.0016 | 1.538 ± 0.0016 | 1.5354 ± 0.0016 | 1.5327 ± 0.0016 | 1.5302 ± 0.0016 | –
[2], x2 = 0.2537 | – | – | 1.5237 ± 0.0016 | 1.5212 ± 0.0016 | 1.5187 ± 0.0016 | 1.5162 ± 0.0016 | 1.5137 ± 0.0016 | 1.5113 ± 0.0016 | –
[2], x2 = 0.3387 | – | – | 1.5053 ± 0.0016 | 1.5029 ± 0.0016 | 1.5006 ± 0.0016 | 1.4983 ± 0.0016 | 1.496 ± 0.0016 | 1.4937 ± 0.0016 | –
[2], x2 = 0.4432 | – | – | 1.4835 ± 0.0016 | 1.4813 ± 0.0016 | 1.4791 ± 0.0016 | 1.477 ± 0.0016 | 1.4749 ± 0.0016 | 1.4728 ± 0.0016 | –
[2], x2 = 0.5468 | – | – | 1.4626 ± 0.0016 | 1.4606 ± 0.0016 | 1.4586 ± 0.0016 | 1.4566 ± 0.0016 | 1.4545 ± 0.0016 | 1.4525 ± 0.0016 | –
[2], x2 = 0.6546 | – | – | 1.4419 ± 0.0016 | 1.4401 ± 0.0016 | 1.4381 ± 0.0016 | 1.4362 ± 0.0016 | 1.4343 ± 0.0016 | 1.4323 ± 0.0016 | –
[2], x2 = 0.7559 | – | – | 1.4235 ± 0.0016 | 1.4216 ± 0.0016 | 1.4196 ± 0.0016 | 1.4176 ± 0.0016 | 1.4156 ± 0.0016 | 1.4138 ± 0.0016 | –
[2], x2 = 0.884 | – | – | 1.4016 ± 0.0016 | 1.3995 ± 0.0016 | 1.3974 ± 0.0016 | 1.3954 ± 0.0016 | 1.3933 ± 0.0016 | 1.3913 ± 0.0016 | –
